# Source: US20170042890A1, “METHODS OF REDUCING DECLINE IN VITAL CAPACITY” (Cytokinetics, Inc., priority 2014, published 2017)
# Key:
# patients with ALS = assay: BENEFIT-ALS clinical trial: Sniff Nasal Inspiratory Pressure (SNIP); format: in vivo, human
# Protocol: BENEFIT-ALS was a multi-national, randomized, stratified, double-blind, placebo-controlled, parallel-group study of tirasemtiv in patients with ALS. The study consisted of a screening period, an open-label/lead-in period, and a double-blind treatment period. Following screening, eligible patients received open-label tirasemtiv, 125 mg BID, for 7 days. Patients who tolerated the 7-day lead-in period were randomized in a 1:1 ratio to tirasemtiv or placebo. Over the first 3 weeks of double-blind treatment, patients randomized to tirasemtiv had their TDD up-titrated as follows: 250 mg for 7 days, then 375 mg for 7 days, then 500 mg for 7 days. […] However, in such cases, dose escalation was re-attempted at least one additional time. The highest tolerable tirasemtiv dose for each individual patient was the dose that patient received for the remaining 9 weeks (i.e., the maximum tolerated dose [MTD] phase) of the study. Patients randomized to placebo underwent a corresponding dummy dose titration.
# Randomization was stratified by riluzole use. […] Clinical assessments occurred every 4 weeks during double-blind treatment; patients also returned for follow-up evaluations at 1 and 4 weeks after their final dose of double-blind study medication (FIG. 1).
# The secondary objectives included assessments of the effect of tirasemtiv versus placebo on measures of respiratory function (Maximum Voluntary Ventilation (MVV), Sniff Nasal Inspiratory Pressure (SNIP), SVC) and skeletal muscle function including handgrip fatigue and muscle-strength mega-score (i.e., the average z-score for muscle strength measurements across the following tested bilateral muscle groups: elbow flexion, wrist extension, knee extension, ankle dorsiflexion, and handgrip)). Secondary endpoints included the changes from baseline in each of the above mentioned measures (MVV, SNIP, SVC, and muscle-strength mega-score) for the Modified FAS, and the slope of each of the measures from baseline to Week 12 for the Modified FAS.
# Eligible patients were males and females, 18 years of age and older, with a diagnosis of familial or sporadic ALS and meeting the World Federation of Neurology El Escorial criteria of definite ALS, probable ALS, laboratory-supported probable ALS, or possible ALS. Patients were to have an upright SVC>50% of predicted for age, height, and sex, a diminished, but measurable, maximum voluntary grip strength in at least one hand (i.e., between 10-50 pounds for females and 10-70 pounds for males), and at least 4 of the 12 ALSFRS-R questions were to have been scored as a 2 or 3. Patients were to be able to swallow tablets without crushing, and in the opinion of the investigator, were expected to do so for the duration of the study. If the patient needed a caregiver, the caregiver was to be able to observe the patient's status. Clinical laboratory results were to be either within their respective normal ranges or if outside the normal range, deemed not clinically significant by the investigator. […] Patients not taking riluzole prior to study entry were not permitted to take riluzole at any dose during the course of the study.
# Safety data presented were based on the safety analysis set, defined as all patients who received at least 1 dose of double-blind study drug. Of the 605 randomized patients, 596 (295 placebo, 301 tirasemtiv) received at least 1 dose of double-blind study drug and were included in the safety analysis set. Data for the primary and secondary efficacy endpoints were analyzed with the Modified FAS. This analysis set included all patients who received at least 1 dose of double-blind study drug and had at least 1 efficacy assessment during the double-blind treatment period, and excluded 156 patients who were randomized in blocks containing patients affected by a study drug assignment error in which 58 patients randomized to and treated with double-blind tirasemtiv were dispensed double-blind placebo instead. […]
# [1] = test system: muscle contraction / grip strength; conditions: cited from earlier work
# CYP 1A2 = molecular target: T1, CYP 1A2 (Homo sapiens, UniProt P05177); conditions: cited from earlier work
# T1 sequence (P05177 1-516): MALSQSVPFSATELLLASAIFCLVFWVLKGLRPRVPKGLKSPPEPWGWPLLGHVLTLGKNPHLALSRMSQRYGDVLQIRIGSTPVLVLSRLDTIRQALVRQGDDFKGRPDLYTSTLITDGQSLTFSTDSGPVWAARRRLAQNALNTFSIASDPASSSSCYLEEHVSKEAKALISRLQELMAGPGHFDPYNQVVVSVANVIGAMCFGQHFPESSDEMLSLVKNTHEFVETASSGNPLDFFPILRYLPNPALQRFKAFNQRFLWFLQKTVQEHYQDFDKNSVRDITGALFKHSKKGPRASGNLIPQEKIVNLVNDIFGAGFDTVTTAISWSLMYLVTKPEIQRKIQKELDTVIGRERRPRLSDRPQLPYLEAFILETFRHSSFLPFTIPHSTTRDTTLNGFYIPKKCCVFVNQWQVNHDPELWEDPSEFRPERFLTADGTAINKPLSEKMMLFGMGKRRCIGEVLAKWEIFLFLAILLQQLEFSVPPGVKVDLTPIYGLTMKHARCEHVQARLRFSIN
compound,measurement,setting,value
"C#Cc1cnc2nc(O)n(C(CC)CC)c2n1 [Tirasemtiv, 6-ethynyl-1-(pentan-3-yl)-1H-imidazo[4,5-b]pyrazin-2(3H)one]",SNIP slope from baseline to Week 12,patients with ALS; Modified FAS N=178,−0.053
same,SNIP change from baseline (LS mean),"patients with ALS; Week 4, Modified FAS N=178",−4.33 cm H2O
same,SNIP change from baseline (LS mean),"patients with ALS; Week 8, Modified FAS N=178",−3.55 cm H2O
same,SNIP change from baseline (LS mean),"patients with ALS; Week 12, Modified FAS N=178",−5.03 cm H2O
same,"SNIP versus placebo, in words",patients with ALS; p=0.012 and 0.050,statistically significantly greater decrease in SNIP at Weeks 4 and 8
same,SNIP difference in slope (tirasemtiv vs placebo),patients with ALS; p=0.2108,−0.0312
same,Grip strength,[1]; preclinical models of limited neuromuscular input,increased grip strength
same,Force of muscle contraction,[1]; submaximal nerve stimulation frequencies,increased the force of muscle contraction
same,Effect on CYP 1A2,CYP 1A2,inhibited
